Assay results: the Deep4Chem optical property database
Blank lines part the entries; values can stand above or below the compound they belong to.

Experiment: solvent given as SMILES

absorption maximum (in ClCCl): 385 nm
Structure (SMILES): CN(C)c1ccc(/C=C/c2ccnc(/C=C/c3ccc(N(C)C)cc3)n2)cc1

absorption maximum (in O): 220 nm
Structure (SMILES): CC(N)=O

absorption maximum (in CCOC(C)=O): 427 nm
Structure (SMILES): CCN1CCN(c2ccc(/N=N/c3cc(C(F)(F)F)cc(C(F)(F)F)c3)cc2)CC1

absorption maximum (in C1COCCO1): 481 nm
absorption maximum (in CC#N): 488 nm
absorption maximum (in ClCCl): 494 nm
Structure (SMILES): CCCCN(CCCC)c1ccc(/C=C/c2ccc3nc(/C=C/c4ccc(N(C)C)cc4)c(=O)n(CCC)c3c2)cc1

absorption maximum (in C1CCCCC1): 405 nm
Structure (SMILES): N#Cc1cc(-c2ccccc2)c(N2c3ccccc3Oc3ccccc32)c(-c2ccccc2)c1

absorption maximum (in C1CCOC1): 395 nm
Structure (SMILES): c1ccc2cc3c(cc2c1)oc1c2oc4cc5ccccc5cc4c2c2ccccc2c31

absorption maximum (in CO): 505 nm
absorption maximum (in ClC(Cl)Cl): 545 nm
Structure (SMILES): Cc1nc2c(ccc3c2sc(/C=C/c2ccc(N4CCN(C)CC4)cc2)[n+]3C)s1

absorption maximum (in ClCCl): 323 nm
Structure (SMILES): c1ccc(-n2nc(-c3ccc(-c4ccc5c(c4)C(c4ccccc4)(c4ccccc4)c4ccccc4-5)cc3)nc2-c2ccccn2)cc1

absorption maximum (in ClCCl): 383 nm
Structure (SMILES): CC(C)(C)C#Cc1cc2c(C#CC(C)(C)C)c(C#CC(C)(C)C)c3cc(C#CC(C)(C)C)cc4c(C#CC(C)(C)C)c(C#CC(C)(C)C)c(c1)c2c34

absorption maximum (in C1COCCO1): 372 nm
absorption maximum (in CC#N): 376 nm
absorption maximum (in CCCCO): 372 nm
absorption maximum (in CCO): 363 nm
absorption maximum (in CO): 364 nm
absorption maximum (in O): 376 nm
Structure (SMILES): O=C(O)c1cc2c(ccc3ccccc32)oc1=O

Structure (SMILES): CCCCCCCCCCCCCCCCN(CCCCCCCCCCCCCCCC)c1ccc(/C=C/c2cc[n+](Cc3cc(C[n+]4ccc(/C=C/c5ccc(N(CCCCCCCCCCCCCCCC)CCCCCCCCCCCCCCCC)cc5)cc4)cc(C[n+]4ccc(/C=C/c5ccc(N(CCCCCCCCCCCCCCCC)CCCCCCCCCCCCCCCC)cc5)cc4)c3)cc2)cc1
absorption maximum (in C1COCCO1): 482 nm
absorption maximum (in CC(C)O): 506 nm
absorption maximum (in CCCCCC): 481 nm
absorption maximum (in CCCCCCCCO): 498 nm
absorption maximum (in CCCCO): 507 nm
absorption maximum (in CCCO): 508 nm
absorption maximum (in CCO): 508 nm
absorption maximum (in CO): 509 nm
absorption maximum (in CS(C)=O): 486 nm
absorption maximum (in Cc1ccc(C)cc1): 483 nm
absorption maximum (in Cc1ccccc1): 483 nm
absorption maximum (in ClC(Cl)Cl): 514 nm
absorption maximum (in ClCCl): 516 nm
absorption maximum (in c1ccccc1): 484 nm

absorption maximum (in C1CCCCC1): 431.03 nm
absorption maximum (in C1COCCO1): 434.97 nm
absorption maximum (in CC#N): 434.97 nm
absorption maximum (in CC(C)O): 431.97 nm
absorption maximum (in CCCCCC): 429.92 nm
absorption maximum (in ClC(Cl)Cl): 437.06 nm
absorption maximum (in c1ccccc1): 434.97 nm
Structure (SMILES): CC1(C)CCc2c(c3ccccc3c3nc4c(nc23)c2c(c3ccccc34)OC(C)(C)CC2)O1

absorption maximum (in ClC(Cl)Cl): 400 nm
Structure (SMILES): F[B-]1(F)OC(c2ccccc2)=Cc2c3ccccc3cc[n+]21

absorption maximum (in C1CCOC1): 375 nm
Structure (SMILES): c1ccc(-n2c3c(c4c2-c2ccccc2C42c4ccccc4-c4ccccc42)C2(c4ccccc4-c4ccccc42)c2ccccc2-3)cc1

absorption maximum (in ClC(Cl)Cl): 516 nm
Structure (SMILES): O=Cc1ccc(C#CC(C#Cc2ccc(C=O)o2)=Cc2ccc(C=C(C#Cc3ccc(C=O)o3)C#Cc3ccc(C=O)o3)s2)o1

absorption maximum (in c1ccccc1): 369 nm
Structure (SMILES): Cn1c(=O)c(-c2ccccc2)nc2ccccc21

absorption maximum (in O): 265 nm
Structure (SMILES): N=C(N)N

absorption maximum (in CC#N): 347 nm
absorption maximum (in ClCCl): 345 nm
Structure (SMILES): CNC(=O)[C@H](C)NC(=O)c1cccc2c1C#Cc1c(N)cccc1OCCCO2
